In ChEMBL document CHEMBL5236643, “Discovery and characterization of orally bioavailable 4-chloro-6-fluoroisophthalamides as covalent PPARG inverse-agonists” (Bioorg Med Chem, 2023):
pIC50: −log10 of the molar value. ≈ marks a conversion by molar mass, not a printed value. Calls of active or inactive are those of the source. No cut-off for these calls is given here.

Assays:
[1] = Antiproliferative activity against human UM-UC-9 assessed as inhibition of cell proliferation measured after 7 days by IncuCyte live-cell imaging assay; conditions: UM-UC-9, 168 h
[2] = Antiproliferative activity against human UM-UC-9 assessed as inhibition of cell proliferation by measuring maximum efficacy after 7 days by IncuCyte live-cell imaging assay; type: functional; conditions: UM-UC-9, 168 h, time 7 day
[3] = Microsomal stability in human liver microsomes assessed as intrinsic clearance at 1 uM measured upto 60 mins in presence of NADPH by HPLC-MS/MS analysis; type: ADME, Microsome; conditions: read-out: CLH (converted)
[4] = Stability in rat hepatocytes assessed as intrinsic clearance at 1 uM incubated for 1 hr by HPLC-MS/MS analysis; type: ADME, cell-based, Hepatocyte; conditions: read-out: CLH (converted)
[5] = Stability of compound in GSH at pH 7.4 assessed as parent compound remaining at 10 mM and measured after 1 hrs by HPLC-UV analysis; type: physicochemical; conditions: GSH solution, read-out: Stability
[6] = Stability of compound in GSH at pH 7.4 assessed as parent compound remaining at 10 mM and measured after 2 hrs by HPLC-UV analysis; type: physicochemical; conditions: GSH solution, read-out: Stability
[7] = Stability of compound in GSH at pH 7.4 assessed as parent compound remaining at 10 mM and measured after 4 hrs by HPLC-UV analysis; type: physicochemical; conditions: GSH solution, read-out: Stability
[8] = Stability of compound in GSH at pH 7.4 assessed as parent compound remaining at 10 mM and measured after 24 hrs by HPLC-UV analysis; type: physicochemical; conditions: GSH solution, read-out: Stability
[9] = Stability of compound in cysteine at pH 7.4 assessed as parent compound remaining at 10 mM and measured after 1 hrs by HPLC-UV analysis; type: physicochemical; conditions: cysteine solution, read-out: Stability
[10] = Stability of compound in cysteine at pH 7.4 assessed as parent compound remaining at 10 mM and measured after 2 hrs by HPLC-UV analysis; type: physicochemical; conditions: cysteine solution, read-out: Stability
[11] = Stability of compound in cysteine at pH 7.4 assessed as parent compound remaining at 10 mM and measured after 4 hrs by HPLC-UV analysis; type: physicochemical; conditions: cysteine solution, read-out: Stability
[12] = Stability of compound in cysteine at pH 7.4 assessed as parent compound remaining at 10 mM and measured after 24 hrs by HPLC-UV analysis; type: physicochemical; conditions: cysteine solution, read-out: Stability
[13] = Apparent permeability across basolateral to apical side in human Caco-2 cells at 2 uM incubated for 2 hrs by LC-MS/MS analysis; type: ADME, cell-based
[14] = Thermodynamic solubility of compound at pH 6.5 PBS buffer; type: physicochemical; conditions: read-out: Therm_solubility
[15] = target: T1, Nuclear receptor subfamily 1 group I member 2 (Homo sapiens, UniProt O75469); experiment: Transactivation of human PXR in human HepG2 cells co-expressing luciferase gene under control of CYP3A4 promoter assessed as increase in luciferase activity incubated for 24 hrs by luminescence based analysis; type: ADME, cell-based
T1 sequence (O75469 whole entry): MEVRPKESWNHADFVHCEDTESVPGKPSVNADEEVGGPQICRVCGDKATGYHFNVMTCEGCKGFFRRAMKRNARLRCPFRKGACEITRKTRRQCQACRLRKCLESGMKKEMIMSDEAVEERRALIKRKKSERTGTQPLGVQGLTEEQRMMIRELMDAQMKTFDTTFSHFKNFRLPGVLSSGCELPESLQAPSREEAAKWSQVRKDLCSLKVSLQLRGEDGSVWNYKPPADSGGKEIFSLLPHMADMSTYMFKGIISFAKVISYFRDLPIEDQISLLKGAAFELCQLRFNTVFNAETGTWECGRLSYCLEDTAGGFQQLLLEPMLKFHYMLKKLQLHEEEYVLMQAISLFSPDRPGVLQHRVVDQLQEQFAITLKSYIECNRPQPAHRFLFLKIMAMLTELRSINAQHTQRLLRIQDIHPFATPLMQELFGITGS

[16] = AUClast in Wistar rat at 1 mg/kg,iv measured upto 24 hrs by HPLC-MS/MS analysis; type: ADME, organism-based; design: time < 24 hrs, dose 1 mg/kg, route iv; conditions: in vivo
[17] = Clearance in Wistar rat at 1 mg/kg,iv measured upto 24 hrs by HPLC-MS/MS analysis; type: ADME, organism-based; conditions: in vivo
[18] = Volume of distribution at steady state in Wistar rat at 1 mg/kg,iv measured upto 24 hrs by HPLC-MS/MS analysis; type: ADME, organism-based; conditions: in vivo, read-out: Vdss
[19] = Half life in Wistar rat at 1 mg/kg,iv measured upto 24 hrs by HPLC-MS/MS analysis; type: ADME, organism-based; conditions: in vivo
[20] = AUClast in NMRI-nu/nu mouse at 100 mg/kg,po measured upto 24 hrs by HPLC-MS/MS analysis; type: ADME, organism-based; design: time < 24 hrs, dose 100 mg/kg, route po; conditions: in vivo
[21] = Cmax in NMRI-nu/nu mouse at 100 mg/kg,po measured upto 24 hrs by HPLC-MS/MS analysis; type: ADME, organism-based; design: time < 24 hrs, dose 100 mg/kg, route po; conditions: in vivo
[22] = Tmax in NMRI-nu/nu mouse at 100 mg/kg,po measured upto 24 hrs by HPLC-MS/MS analysis; type: ADME, organism-based; conditions: in vivo
[23] = target: T2, Peroxisome proliferator-activated receptor gamma (Mus musculus) (UniProt P37238); experiment: Inverse agonist activity at PPARgamma in NMRI-nu/nu mouse assessed as reduction in Fabp4 mRNA expression in adipose tissue at 100 mg/kg for 3 days and measured 6 hrs last dose by qPCR analysis; type: organism-based; conditions: time 3.0 day
T2 sequence (whole entry): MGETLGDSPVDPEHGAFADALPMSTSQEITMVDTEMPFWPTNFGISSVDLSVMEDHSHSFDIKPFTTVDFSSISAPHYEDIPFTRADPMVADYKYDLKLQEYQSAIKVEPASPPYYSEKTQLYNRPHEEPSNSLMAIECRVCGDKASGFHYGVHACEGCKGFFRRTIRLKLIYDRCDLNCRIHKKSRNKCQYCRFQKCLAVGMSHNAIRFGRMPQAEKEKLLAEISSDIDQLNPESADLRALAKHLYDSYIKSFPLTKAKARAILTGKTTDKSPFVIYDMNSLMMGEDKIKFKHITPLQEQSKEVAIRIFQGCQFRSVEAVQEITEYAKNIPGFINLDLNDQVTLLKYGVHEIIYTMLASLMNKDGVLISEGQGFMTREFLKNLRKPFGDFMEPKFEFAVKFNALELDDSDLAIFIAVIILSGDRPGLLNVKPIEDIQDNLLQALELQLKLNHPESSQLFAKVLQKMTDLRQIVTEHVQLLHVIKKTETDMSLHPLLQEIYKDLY

[24] = target: T2, Peroxisome proliferator-activated receptor gamma (Mus musculus); experiment: Inverse agonist activity at PPARgamma in NMRI-nu/nu mouse assessed as decrease in Acaab1 mRNA expression in adipose tissue at 100 mg/kg for 3 days and measured upto 15 hrs last dose by qPCR analysis; type: organism-based; conditions: filed as inverse agonist, time 3.0 day
[25] = target: T3, Peroxisome proliferator-activated receptor alpha (Homo sapiens, UniProt Q07869); experiment: Agonist activity at human PPARalpha expressed in CHO cells co-expressing GAL4-NHR-LBD assessed as transcriptional activation preincubated for 6 hrs followed by luciferin addition by luminescence method; type: cell-based
T3 sequence (Q07869 whole entry): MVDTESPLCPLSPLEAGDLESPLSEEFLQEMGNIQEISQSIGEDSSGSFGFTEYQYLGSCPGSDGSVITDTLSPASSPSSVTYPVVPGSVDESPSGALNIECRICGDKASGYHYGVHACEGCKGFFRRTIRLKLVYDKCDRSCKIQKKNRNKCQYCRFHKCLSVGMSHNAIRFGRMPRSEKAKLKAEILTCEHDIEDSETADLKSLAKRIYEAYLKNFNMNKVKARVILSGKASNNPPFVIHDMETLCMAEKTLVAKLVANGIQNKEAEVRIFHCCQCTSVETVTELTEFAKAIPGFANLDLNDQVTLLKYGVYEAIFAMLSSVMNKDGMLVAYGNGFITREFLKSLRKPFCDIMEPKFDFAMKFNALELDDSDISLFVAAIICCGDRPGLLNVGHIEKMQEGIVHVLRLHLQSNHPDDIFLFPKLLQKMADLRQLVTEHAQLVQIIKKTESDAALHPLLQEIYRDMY

[26] = target: T4, Peroxisome proliferator-activated receptor delta (Homo sapiens, UniProt Q03181); experiment: Inverse agonist activity at human PPARdelta expressed in CHO cells co-expressing GAL4-NHR-LBD assessed as transcriptional repression preincubated for 6 hrs followed by luciferin addition by luminescence method; type: cell-based
T4 sequence (Q03181 whole entry): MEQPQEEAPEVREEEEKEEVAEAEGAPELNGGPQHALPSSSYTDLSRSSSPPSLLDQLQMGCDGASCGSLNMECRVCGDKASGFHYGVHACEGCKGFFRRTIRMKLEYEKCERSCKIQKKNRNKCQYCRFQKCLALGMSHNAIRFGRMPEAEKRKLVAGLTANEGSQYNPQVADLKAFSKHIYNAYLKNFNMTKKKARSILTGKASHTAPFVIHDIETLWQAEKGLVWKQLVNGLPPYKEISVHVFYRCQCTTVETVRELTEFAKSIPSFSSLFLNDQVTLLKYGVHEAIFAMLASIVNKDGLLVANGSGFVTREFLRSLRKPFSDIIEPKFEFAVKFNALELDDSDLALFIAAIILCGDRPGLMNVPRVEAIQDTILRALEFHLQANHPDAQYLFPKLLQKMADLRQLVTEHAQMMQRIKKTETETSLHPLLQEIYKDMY

`CC(C)(O)c1ccc(NC(=O)c2cc(C(=O)NCc3ccc(F)c(F)c3)c(F)cc2Cl)cc1` gave a pIC50 [1] of 7.39, an Emax [2] of 71% and a CLint scaled at 1 µM [3] of 15.5 mL/min/kg. For the same molecule, the CLint scaled at 1 µM [4] was 29.3 mL/min/kg, the remaining at 1 h, 10000 µM [5] was 100% and the remaining at 2 h, 10000 µM [6] was 100%. The remaining at 4 h, 10000 µM [7] was 100%, the remaining at 24 h, 10000 µM [8] was 100% and the remaining at 1 h, 10000 µM [9] was 100%. It also gave a remaining at 2 h, 10000 µM [10] of 100%, a remaining at 4 h, 10000 µM [11] of 100% and a remaining at 24 h, 10000 µM [12] of 100%. For the same molecule, the Papp B→A at 2 h, 2 µM [13] was 17.1 ×10⁻⁶ cm/s, the solubility thermodynamic [14] was 6.55 µg/mL (≈ 13.7 µM) and the pIC50 [15] was < 4.30. It also gave an AUClast [16] of 0.18 kg·h/L, a clearance [17] of 93.3 mL/min/kg and a Vd [18] of 1.8 L/kg. For the same molecule, the half-life [19] was 11.4 min, the AUC(0-t) at 24 h [20] was 1900 ng·h/mL and the Cmax [21] was 3.2 nM. The Tmax [22] was 60 min, the Activity [23] was “inactive” and the Activity [24] was “Active”.
For `Cc1c(C)n(Cc2ccc(Cl)c(O[C@@H](C)C(=O)O)c2)c2ccc(C(=O)N[C@@H](C)c3ccc(C(C)(C)C)cc3)cc12`, the pIC50 [25] was 6.03, the pIC50 [26] was 5.05 and the Activity [23] was “inactive”.
